{
  "source": "patent US20250282799A1",
  "about": "“SUBSTITUTED PYRIDO[4,3-d]PYRIMIDINES AS KRAS MODULATORS” (Alterome Therapeutics, Inc., priority 2023, published 2025)",
  "data": [
    {"test_system": "KRAS G12V dependent lung adenocarcinoma cell line, NCI-H441", "experiment": "Cellular pERK (Thr202/Tyr204) FRET/HTRF assay", "format": "cell-based", "details": "Homo sapiens, NCI-H441, cellular pERK (Thr202/Tyr204) HTRF, NCI-H441 cells", "in_short": "(§1)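 NCI-H441, overnight plating → cpd 1 hr, 37 °C/5% CO2; DMSO neg ctrl. Lyse (phosphatase inhibitors), add donor/acceptor Abs, RT incubation, HTRF read. IC50 by curve fit.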", "units": {"IC50": "nM"}, "values": [
      {"compound": "[2H]C([2H])(Oc1nc(N2CCOC[C@H]3[C@H](F)[C@H]32)c2cnc(-c3cc(O)cc(Cl)c3C(F)(F)F)c(F)c2n1)[C@@]12CCCN1C[C@H](F)C2", "note": "[Example 298, 3-chloro-5-(8-fluoro-4-((1S,7S,8S)-8-fluoro-5-oxa-2-azabicyclo[5.1.0]octan-2-yl)-2-(((2R,7aS)-2-fluorotetrahydro-1H-pyrrolizin-7a(5H)-yl)methoxy-d2)pyrido[4,3-d]pyrimidin-7-yl)-4-(trifluoromethyl)phenol]", "IC50": "< 50"},
      {"compound": "[2H]C([2H])(Oc1nc(N2CCOC[C@H]3[C@H](F)[C@H]32)c2c(OC)nc(-c3cccc4ccc(F)c(C#C)c34)c(F)c2n1)[C@@]12CCCN1C[C@H](F)C2", "note": "[Example 235, (1S,7S,8S)-2-(7-(8-ethynyl-7-fluoronaphthalen-1-yl)-8-fluoro-2-(((2R,7aS)-2-fluorotetrahydro-1H-pyrrolizin-7a(5H)-yl)methoxy-d2)-5-methoxypyrido[4,3-d]pyrimidin-4-yl)-8-fluoro-5-oxa-2-azabicyclo[5.1.0]octane]", "IC50": "500 to 10000"},
      {"compound": "[2H]C([2H])(F)Oc1c(F)ccc2cccc(-c3ncc4c(N5CCOC[C@H]6[C@H](F)[C@H]65)nc(OC[C@@]56CCCN5C/C(=C\\F)C6)nc4c3F)c12", "note": "[Example 157, (1S,7S,8S)-8-fluoro-2-(8-fluoro-7-(7-fluoro-8-(fluoromethoxy-d2)naphthalen-1-yl)-2-(((S,Z)-2-(fluoromethylene)tetrahydro-1H-pyrrolizin-7a(5H)-yl)methoxy)pyrido[4,3-d]pyrimidin-4-yl)-5-oxa-2-azabicyclo[5.1.0]octane]", "IC50": "< 50"},
      {"compound": "[2H]C([2H])(Oc1nc(N2CCOC[C@H]3[C@H](F)[C@H]32)c2c(Cl)nc(-c3cc(N)cc4ccc(F)c(C#C)c34)c(F)c2n1)[C@@]12CCCN1C[C@H](F)C2", "note": "[Example 291, 4-(5-Chloro-8-fluoro-4-((1S,7S,8S)-8-fluoro-5-oxa-2-azabicyclo[5.1.0]octan-2-yl)-2-(((2R,7aS)-2-fluorotetrahydro-1H-pyrrolizin-7a(5H)-yl)methoxy-d2)pyrido[4,3-d]pyrimidin-7-yl)-5-ethynyl-6-fluoronaphthalen-2-amine]", "IC50": "< 50"},
      {"compound": "[2H]C([2H])(F)Oc1c(F)ccc2cc(N)cc(-c3ncc4c(N5CCOC[C@H]6[C@H](F)[C@H]65)nc(OC[C@@]56CCCN5C[C@]5(CC5(F)F)C6)nc4c3F)c12", "note": "(single isomer, unassigned) [Example 230]", "IC50": "< 50"},
      {"compound": "[2H]C([2H])(Oc1nc(N2CCOC[C@@H]3[C@@H](F)[C@@H]32)c2cc(Cl)c(-c3cc(N)cc(C)c3C(F)(F)F)c(F)c2n1)[C@@]12CCCN1C[C@H](F)C2", "note": "[Example 181, 3-(6-chloro-8-fluoro-4-((1R,7R,8R)-8-fluoro-5-oxa-2-azabicyclo[5.1.0]octan-2-yl)-2-(((2R,7aS)-2-fluorotetrahydro-1H-pyrrolizin-7a(5H)-yl)methoxy-d2)quinazolin-7-yl)-5-methyl-4-(trifluoromethyl)aniline]", "IC50": "500 to 10000"},
      {"compound": "[2H]C([2H])(Oc1nc(N2CCOC[C@H]3[C@H](F)[C@H]32)c2cnc(-c3cc(N)c(F)c(Cl)c3C(F)(F)F)c(F)c2n1)[C@@]12CCCN1C[C@H](F)C2", "note": "[Example 289, 3-chloro-2-fluoro-5-(8-fluoro-4-((1S,7S,8S)-8-fluoro-5-oxa-2-azabicyclo[5.1.0]octan-2-yl)-2-(((2R,7aS)-2-fluorotetrahydro-1H-pyrrolizin-7a(5H)-yl)methoxy-d2)pyrido[4,3-d]pyrimidin-7-yl)-4-(trifluoromethyl)aniline]", "IC50": "< 50"},
      {"compound": "Cc1c(F)c(N)cc(-c2ncc3c(N4CCCC[C@H]5[C@H](F)[C@H]54)nc(OC[C@@]45CCCN4C/C(=C/F)C5)nc3c2F)c1C(F)(F)F", "note": "[Example 396, 2-fluoro-5-(8-fluoro-4-((1S,7R,8S)-8-fluoro-2-azabicyclo[5.1.0]octan-2-yl)-2-(((S,E)-2-(fluoromethylene)tetrahydro-1H-pyrrolizin-7a(5H)-yl)methoxy)pyrido[4,3-d]pyrimidin-7-yl)-3-methyl-4-(trifluoromethyl)aniline]", "IC50": "500 to 10000"},
      {"compound": "C#Cc1c(F)ccc2cc(N)cc(-c3ncc4c(N5CCOC[C@H]6[C@H](F)[C@H]65)nc(OC[C@]56C/C(=C/F)CN5CCC65CC5)nc4c3C)c12", "note": "[Example 431, 5-Ethynyl-6-fluoro-4-(4-((1S,7S,8S)-8-fluoro-5-oxa-2-azabicyclo[5.1.0]octan-2-yl)-2-(((R,Z)-6′-(fluoromethylene)tetrahydrospiro[cyclopropane-1,1′-pyrrolizin]-7a′(5′H)-yl)methoxy)-8-methylpyrido[4,3-d]pyrimidin-7-yl)naphthalen-2-amine]", "IC50": "< 50"},
      {"compound": "[2H]C1([2H])CC2(CC2)[C@@]2(C([2H])([2H])Oc3nc(N4CCOC[C@H]5[C@H](F)[C@H]54)c4cnc(-c5cc(N)cc6ccc(F)c(C#C)c56)c(F)c4n3)C[C@]([2H])(F)CN12", "note": "(single isomer, unassigned) [Example 203]", "IC50": "< 50"},
      {"compound": "[2H]C([2H])([2H])Oc1c(F)c(F)c(F)c2cc(N)cc(-c3ncc4c(N5CCOC[C@@H]6[C@H]5[C@@]6([2H])F)nc(OC([2H])([2H])[C@@]56CCCN5C[C@H](F)C6)nc4c3F)c12", "note": "[Example 119, 6,7,8-trifluoro-4-(8-fluoro-4-((1S,7S,8S)-8-fluoro-5-oxa-2-azabicyclo[5.1.0]octan-2-yl-8-d)-2-(((2R,7aS)-2-fluorotetrahydro-1H-pyrrolizin-7a(5H)-yl)methoxy-d2)pyrido[4,3-d]pyrimidin-7-yl)-5-(methoxy-d3)naphthalen-2-amine]", "IC50": "< 50"},
      {"compound": "[2H]C([2H])(Oc1nc(N2CCOC[C@H]3[C@H](F)[C@H]32)c2cc(C(F)(F)F)c(-c3cc(N)cc4ccc(F)c(C#C)c34)c(F)c2n1)[C@@]12CCCN1C[C@H](F)C2", "note": "[Example 328, 5-ethynyl-6-fluoro-4-(8-fluoro-4-((1S,7S,8S)-8-fluoro-5-oxa-2-azabicyclo[5.1.0]octan-2-yl)-2-(((2R,7aS)-2-fluorotetrahydro-1H-pyrrolizin-7a(5H)-yl)methoxy-d2)-6-(trifluoromethyl)quinazolin-7-yl)naphthalen-2-amine]", "IC50": "500 to 10000"},
      {"compound": "C=C1CN2CCC[C@@]2(COc2nc(N3CCCC[C@H]4[C@H](F)[C@H]43)c3cnc(-c4cc(N)c(F)c(C)c4C(F)(F)F)c(F)c3n2)C1", "note": "[Example 392, 2-fluoro-5-(8-fluoro-4-((1S,7R,8S)-8-fluoro-2-azabicyclo[5.1.0]octan-2-yl)-2-(((S)-2-methylenetetrahydro-1H-pyrrolizin-7a(5H)-yl)methoxy)pyrido[4,3-d]pyrimidin-7-yl)-3-methyl-4-(trifluoromethyl)aniline]", "IC50": "50 to 500"}
    ]},
    {"test_system": "KRAS G12V dependent lung adenocarcinoma cell line, NCI-H441", "experiment": "Cellular pERK (Thr202/Tyr204) FRET/HTRF assay", "format": "cell-based", "details": "Homo sapiens, NCI-H441, cellular pERK HTRF, NCI-H441 (KRAS G12V) cells", "in_short": "as §1", "units": {"IC50": "nM"}, "values": [
      {"compound": "[2H]C([2H])(Oc1nc(N2CCCC[C@H]3[C@H](F)[C@H]32)c2cnc(-c3cc(N)cc4ccc(F)c(C#C)c34)c(C)c2n1)[C@@]12CCCN1CC(=C)C2", "note": "[Example 457, 5-Ethynyl-6-fluoro-4-(4-((1S,7R,8S)-8-fluoro-2-azabicyclo[5.1.0]octan-2-yl)-8-methyl-2-(((S)-2-methylenetetrahydro-1H-pyrrolizin-7a(5H)-yl)methoxy-d2)pyrido[4,3-d]pyrimidin-7-yl)naphthalen-2-amine]", "IC50": "< 50"},
      {"compound": "[2H]C([2H])(Oc1nc(N2CCOC[C@H]3[C@H](F)[C@H]32)c2cnc(-c3cc(O)cc4ccc(F)c(C#C)c34)c(C)c2n1)[C@@]12CCCN1[C@H](C)[C@H](F)C2", "note": "[Example 471, 5-ethynyl-6-fluoro-4-(2-(((2R,3R,7aS)-2-fluoro-3-methyltetrahydro-1H-pyrrolizin-7a(5H)-yl)methoxy-d2)-4-((1S,7S,8S)-8-fluoro-5-oxa-2-azabicyclo[5.1.0]octan-2-yl)-8-methylpyrido[4,3-d]pyrimidin-7-yl)naphthalen-2-ol]", "IC50": "< 50"}
    ]},
    {"test_system": "KRAS G12V dependent lung adenocarcinoma cell line, NCI-H441", "experiment": "Cellular pERK (Thr202/Tyr204) FRET/HTRF assay", "format": "cell-based", "details": "Homo sapiens, NCI-H441, pERK HTRF, NCI-H441 cells (KRAS G12V)", "in_short": "as §1", "units": {"IC50": "nM"}, "values": [
      {"compound": "[2H]C([2H])(Oc1nc(N2CCOC[C@H]3[C@H](F)[C@H]32)c2cnc(-c3cccc4ccc(F)c(C#C)c34)c(F)c2n1)[C@@]12CCCN1C[C@H](F)C2", "note": "[Example 45, (1S,7S,8S)-2-(7-(8-Ethynyl-7-fluoronaphthalen-1-yl)-8-fluoro-2-(((2R,7aS)-2-fluorotetrahydro-1H-pyrrolizin-7a(5H)-yl)methoxy-d2)pyrido[4,3-d]pyrimidin-4-yl)-8-fluoro-5-oxa-2-azabicyclo[5.1.0]octane]", "IC50": "< 50"},
      {"compound": "[2H]C([2H])(Oc1nc(N2CCCO[C@@H]3[C@H](F)[C@@H]32)c2cnc(-c3cc(N)cc4cc(F)c(F)c(C#C)c34)c(F)c2n1)[C@@]12CCCN1C[C@H](F)C2", "note": "[Example 22, 5-Ethynyl-6,7-difluoro-4-(8-fluoro-4-((1S,7R,8R)-8-fluoro-2-oxa-6-azabicyclo[5.1.0]octan-6-yl)-2-(((2R,7aS)-2-fluorotetrahydro-1H-pyrrolizin-7a(5H)-yl)methoxy-d2)pyrido[4,3-d]pyrimidin-7-yl)naphthalen-2-amine]", "IC50": "50 to 500"},
      {"compound": "C#Cc1c(F)ccc2cc(N)cc(-c3ncc4c(N5CCCC[C@@H]6C[C@@H]65)nc(OC[C@@]56CCCN5C[C@H](F)C6)nc4c3F)c12", "note": "[Example 4, 4-(4-((1S,7R)-2-azabicyclo[5.1.0]octan-2-yl)-8-fluoro-2-(((2R,7aS)-2-fluorotetrahydro-1H-pyrrolizin-7a(5H)-yl)methoxy)pyrido[4,3-d]pyrimidin-7-yl)-5-ethynyl-6-fluoronaphthalen-2-amine]", "IC50": "500 to 10000"},
      {"compound": "[2H]C([2H])(Oc1nc(N2CCC3CC3CC2)c2cnc(-c3cc(N)cc4cc(F)c(F)c(C#C)c34)c(F)c2n1)[C@@]12CCCN1C[C@H](F)C2", "note": "(stereo partly drawn) [Example 9, 4-(4-(4-Azabicyclo[5.1.0]octan-4-yl)-8-fluoro-2-(((2R,7aS)-2-fluorotetrahydro-1H-pyrrolizin-7a(5H)-yl)methoxy-d2)pyrido[4,3-d]pyrimidin-7-yl)-5-ethynyl-6,7-difluoronaphthalen-2-amine]", "IC50": "50 to 500"}
    ]}
  ]
}
